Read-outs that look alike come from different tables or passages of the source. Blank lines part the entries; values can stand above or below the compound they belong to.
Legend:
Format in all cases: binding
[1] = target: T1, GH8-1; endoglucanase from Clostridium thermocellum (Acetivibrio thermocellus, UniProt A3DC29); experiment: SPR (Biacore T100), enzyme amine-coupled to CM5 chip; settings: immobilised enzyme; ligand 10-5000 μM; weak, not saturable
T1 construct: gene celA; commercial recombinant (NZYtech), no CBM; amine-coupled to CM5 chip
T1 sequence (A3DC29 33-477): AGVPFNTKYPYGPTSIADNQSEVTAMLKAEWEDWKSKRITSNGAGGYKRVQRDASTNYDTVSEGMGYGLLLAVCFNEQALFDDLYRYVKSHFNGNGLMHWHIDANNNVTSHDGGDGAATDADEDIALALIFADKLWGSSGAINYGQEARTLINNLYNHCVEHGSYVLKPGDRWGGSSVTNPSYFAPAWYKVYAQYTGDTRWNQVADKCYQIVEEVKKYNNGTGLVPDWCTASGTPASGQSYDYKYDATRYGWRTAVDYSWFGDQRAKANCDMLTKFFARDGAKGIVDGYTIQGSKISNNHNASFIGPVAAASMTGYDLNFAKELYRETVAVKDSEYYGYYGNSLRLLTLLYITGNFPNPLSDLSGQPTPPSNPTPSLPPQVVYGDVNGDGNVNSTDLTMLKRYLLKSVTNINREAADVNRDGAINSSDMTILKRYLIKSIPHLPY

[2] = target: T2, GH13-6; pig pancreatic α-amylase (Sus scrofa, UniProt P00690); experiment: SPR (Biacore T100), biotinylated enzyme on streptavidin chip
T2 construct: gene AMY2; native porcine pancreas enzyme from Sigma; biotinylated, on streptavidin chip
T2 sequence (P00690 16-511): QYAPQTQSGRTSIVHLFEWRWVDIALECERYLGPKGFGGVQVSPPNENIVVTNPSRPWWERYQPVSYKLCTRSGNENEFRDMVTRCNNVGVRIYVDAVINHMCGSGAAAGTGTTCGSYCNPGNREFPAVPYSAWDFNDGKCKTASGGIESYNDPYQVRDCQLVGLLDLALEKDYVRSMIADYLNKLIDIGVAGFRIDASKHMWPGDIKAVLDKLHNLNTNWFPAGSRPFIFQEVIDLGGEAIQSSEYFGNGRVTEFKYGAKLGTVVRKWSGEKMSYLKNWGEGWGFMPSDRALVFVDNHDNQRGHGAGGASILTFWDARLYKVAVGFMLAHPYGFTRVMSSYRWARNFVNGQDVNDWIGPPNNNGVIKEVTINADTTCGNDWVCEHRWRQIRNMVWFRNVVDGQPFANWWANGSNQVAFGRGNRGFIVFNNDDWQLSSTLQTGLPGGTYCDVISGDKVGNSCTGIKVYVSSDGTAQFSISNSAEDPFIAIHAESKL
Source text: SPR (Biacore T100), biotinylated enzyme on streptavidin chip on GH13-6; pig pancreatic α-amylase

[3] = target: T3, GH13-5; pullulanase from Bacillus subtilis (Bacillus subtilis, UniProt C0SPA0); experiment: as above
T3 construct: gene amyX; commercial recombinant (Prozomix); contains CBM48; biotinylated, on streptavidin chip
T3 sequence (C0SPA0 1-718): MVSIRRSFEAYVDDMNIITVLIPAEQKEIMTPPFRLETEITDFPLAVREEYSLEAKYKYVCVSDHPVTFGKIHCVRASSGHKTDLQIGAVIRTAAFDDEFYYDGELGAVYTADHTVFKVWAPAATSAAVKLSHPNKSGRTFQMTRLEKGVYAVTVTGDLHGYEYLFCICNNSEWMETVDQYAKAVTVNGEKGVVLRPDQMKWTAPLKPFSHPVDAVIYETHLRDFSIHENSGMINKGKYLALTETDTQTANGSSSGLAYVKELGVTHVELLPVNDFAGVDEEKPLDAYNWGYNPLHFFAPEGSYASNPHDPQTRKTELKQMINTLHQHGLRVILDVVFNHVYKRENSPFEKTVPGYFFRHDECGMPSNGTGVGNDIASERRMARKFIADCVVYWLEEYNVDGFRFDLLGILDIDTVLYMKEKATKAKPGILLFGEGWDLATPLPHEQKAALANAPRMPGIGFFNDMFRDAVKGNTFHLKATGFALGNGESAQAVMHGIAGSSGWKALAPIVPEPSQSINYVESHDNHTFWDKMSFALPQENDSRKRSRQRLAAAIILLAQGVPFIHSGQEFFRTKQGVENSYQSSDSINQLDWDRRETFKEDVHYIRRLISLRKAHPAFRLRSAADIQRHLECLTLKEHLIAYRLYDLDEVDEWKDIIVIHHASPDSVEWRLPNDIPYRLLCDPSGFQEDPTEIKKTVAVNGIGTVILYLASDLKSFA
Source text: SPR (Biacore T100), biotinylated enzyme on streptavidin chip on GH13-5; pullulanase from Bacillus subtilis

[4] = target: T4, GH13-3; E. coli α-amylase (Escherichia coli, UniProt P26612); experiment: as above
T4 construct: gene amyA; commercial recombinant (Prozomix); biotinylated, on streptavidin chip; GH13 subfamily 5 implied by homology to Bacillus sp
T4 sequence (P26612 1-495): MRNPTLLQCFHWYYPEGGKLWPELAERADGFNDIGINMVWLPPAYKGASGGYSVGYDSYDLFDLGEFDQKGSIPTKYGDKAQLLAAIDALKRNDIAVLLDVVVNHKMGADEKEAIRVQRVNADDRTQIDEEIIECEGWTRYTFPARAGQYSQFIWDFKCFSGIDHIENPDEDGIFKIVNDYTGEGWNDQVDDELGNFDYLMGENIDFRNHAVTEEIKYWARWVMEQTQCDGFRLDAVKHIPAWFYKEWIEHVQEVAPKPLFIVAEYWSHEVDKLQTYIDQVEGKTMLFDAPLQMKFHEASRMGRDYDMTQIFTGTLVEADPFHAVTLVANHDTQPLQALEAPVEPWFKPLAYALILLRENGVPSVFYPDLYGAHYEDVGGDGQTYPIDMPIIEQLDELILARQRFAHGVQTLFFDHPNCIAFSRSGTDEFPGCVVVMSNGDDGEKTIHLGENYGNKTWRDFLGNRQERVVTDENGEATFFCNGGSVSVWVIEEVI
Source text: SPR (Biacore T100), biotinylated enzyme on streptavidin chip on GH13-3; E. coli α-amylase

[5] = target: T5, GH48-1; processive endoglucanase from Clostridium cellulolyticum (Ruminiclostridium cellulolyticum, UniProt P37698); experiment: SPR (Biacore T100), enzyme amine-coupled to CM5 chip; settings: one-site fit; immobilised enzyme
T5 construct: gene celCCF; commercial recombinant (NZYtech), no CBM; amine-coupled to CM5 chip
T5 sequence (P37698 30-650 limits assumed): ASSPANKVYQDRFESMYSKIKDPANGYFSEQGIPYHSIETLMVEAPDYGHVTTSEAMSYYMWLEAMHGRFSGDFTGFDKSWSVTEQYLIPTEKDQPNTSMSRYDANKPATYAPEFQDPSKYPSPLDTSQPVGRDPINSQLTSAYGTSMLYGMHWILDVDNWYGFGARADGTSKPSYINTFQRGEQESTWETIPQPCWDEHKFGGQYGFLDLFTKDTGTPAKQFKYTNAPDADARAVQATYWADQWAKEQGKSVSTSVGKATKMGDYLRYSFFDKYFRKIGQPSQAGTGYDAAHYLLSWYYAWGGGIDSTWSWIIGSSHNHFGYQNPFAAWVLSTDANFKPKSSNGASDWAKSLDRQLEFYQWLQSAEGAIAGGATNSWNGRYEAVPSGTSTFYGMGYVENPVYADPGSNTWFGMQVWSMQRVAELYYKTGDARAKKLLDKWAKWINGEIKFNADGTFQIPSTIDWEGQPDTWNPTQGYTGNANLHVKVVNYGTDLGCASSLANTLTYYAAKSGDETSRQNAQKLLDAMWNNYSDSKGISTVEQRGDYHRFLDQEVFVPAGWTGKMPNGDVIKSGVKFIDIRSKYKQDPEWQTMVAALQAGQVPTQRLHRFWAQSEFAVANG
Source text: SPR (Biacore T100), enzyme amine-coupled to CM5 chip on GH48-1; processive endoglucanase from Clostridium cellulolyticum

[6] = target: T6, GH6-1; endoglucanase from Thermobifida fusca (Thermobifida fusca, UniProt P26222); experiment: as above; settings: one-site fit; immobilised enzyme
T6 construct: gene celB; gift of David Wilson; amine-coupled to CM5 chip
T6 sequence (P26222 32-322 limits assumed): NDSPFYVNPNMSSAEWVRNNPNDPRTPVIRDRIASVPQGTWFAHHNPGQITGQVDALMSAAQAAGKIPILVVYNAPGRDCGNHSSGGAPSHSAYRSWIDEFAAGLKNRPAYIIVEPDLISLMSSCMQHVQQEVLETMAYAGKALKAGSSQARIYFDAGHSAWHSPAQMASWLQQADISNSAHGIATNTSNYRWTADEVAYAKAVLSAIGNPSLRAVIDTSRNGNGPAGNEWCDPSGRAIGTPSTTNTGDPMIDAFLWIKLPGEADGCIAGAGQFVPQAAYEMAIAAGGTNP
Source text: SPR (Biacore T100), enzyme amine-coupled to CM5 chip on GH6-1; endoglucanase from Thermobifida fusca

[7] = target: T1, GH8-1; endoglucanase from Clostridium thermocellum; experiment: as above; settings: one-site fit; immobilised enzyme; stoichiometry above 2 (several sites)
Source text: SPR (Biacore T100), enzyme amine-coupled to CM5 chip on GH8-1; endoglucanase from Clostridium thermocellum

SMILES: OC[C@H]1O[C@H](O[C@H]2[C@H](O)[C@@H](O)[C@@H](O[C@H]3[C@H](O)[C@@H](O)[C@@H](O[C@H]4[C@H](O)[C@@H](O)C(O)O[C@@H]4CO)O[C@@H]3CO)O[C@@H]2CO)[C@H](O)[C@@H](O)[C@@H]1O (stereo partly drawn) [maltotetraose]
NS [1]: GH8-1 interacts weakly with these oligosaccharides

Kd ([2]; one-site fit, immobilised enzyme, stoichiometry above 1 (several sites)): 1330 ± 120 µM
SMILES: OC[C@H]1O[C@H](O[C@H]2[C@H](O)[C@@H](O)[C@@H](O[C@H]3[C@H](O)[C@@H](O)[C@@H](O[C@H]4[C@H](O)[C@@H](O)[C@@H](O[C@H]5[C@H](O)[C@@H](O)[C@@H](O[C@H]6[C@H](O)[C@@H](O)C(O)O[C@@H]6CO)O[C@@H]5CO)O[C@@H]4CO)O[C@@H]3CO)O[C@@H]2CO)[C@H](O)[C@@H](O)[C@@H]1O (stereo partly drawn) [maltohexaose]

SMILES: OC1OC[C@@H](O[C@@H]2OC[C@@H](O[C@@H]3OC[C@@H](O[C@@H]4OC[C@@H](O)[C@H](O)[C@H]4O)[C@H](O)[C@H]3O)[C@H](O)[C@H]2O)[C@H](O)[C@H]1O (stereo partly drawn) [xylotetraose]
NS [1]: GH8-1 interacts weakly with these oligosaccharides

SMILES: OC[C@H]1O[C@@H]2O[C@H]3[C@H](O)[C@@H](O)[C@@H](O[C@H]4[C@H](O)[C@@H](O)[C@@H](O[C@H]5[C@H](O)[C@@H](O)[C@@H](O[C@H]6[C@H](O)[C@@H](O)[C@@H](O[C@H]7[C@H](O)[C@@H](O)[C@@H](O[C@H]8[C@H](O)[C@@H](O)[C@@H](O[C@H]1[C@H](O)[C@H]2O)O[C@@H]8CO)O[C@@H]7CO)O[C@@H]6CO)O[C@@H]5CO)O[C@@H]4CO)O[C@@H]3CO [β-cyclodextrin]
Kd [3]: 970 ± 130 µM | Kd [4]: 1360 ± 50 µM | Kd [2]: 870 ± 400 µM

Kd [5]: 2070 ± 780 µM | Kd [6]: 330 ± 110 µM | Kd [7]: 860 ± 90 µM
SMILES: OC[C@H]1O[C@@H](O[C@H]2[C@H](O)[C@@H](O)[C@H](O[C@H]3[C@H](O)[C@@H](O)[C@H](O[C@H]4[C@H](O)[C@@H](O)[C@H](O[C@H]5[C@H](O)[C@@H](O)C(O)O[C@@H]5CO)O[C@@H]4CO)O[C@@H]3CO)O[C@@H]2CO)[C@H](O)[C@@H](O)[C@@H]1O (stereo partly drawn) [cellopentaose]

— PMC4978508, “Using Carbohydrate Interaction Assays to Reveal Novel Binding Sites in Carbohydrate Active Enzymes” (PLoS ONE, 2016)
